From patent publication US4179441A, “Fungidal and herbicidal 2-substituted-3-oxa-3aλ^4, 4-dithia-6-halo-1,5-diazapentalene” (Chevron Research Company, priority 1977, dated 1979)

Columns and labels:
[1] = tested on: Septoria apii; conditions: in vivo
[2] = tested on: Mustard (Brassica arvensis); experiment: Post-emergent herbicidal test; format: in vivo; conditions: 0-to-100 scale
[3] = tested on: Watergrass (Echinochloa crusgalli); experiment: Post-emergent herbicidal test; format: in vivo; conditions: 0-to-100 scale
[4] = tested on: Watergrass (Echinochloa crusgalli); experiment: Pre-Emergent herbicidal test; format: in vivo; conditions: 33 micrograms/cm^2, 3 weeks, 0-to-100 scale, 100 = complete kill
Experimental: (§1) Pre-emergent herbicidal tests on representative compounds of the invention were made using the following method:
(§2) An acetone solution of the test compound was prepared by mixing 750 mg of the compound, 220 mg of a nonionic surfactant and 25 ml of acetone. This solution was added to approximately 125 ml of water containing 156 mg of surfactant.
(§3) Seeds of the test vegetation were planted in a pot of soil and the test solution was sprayed uniformly onto the soil surface at a dose of 33 micrograms/cm^2. The pot was watered and placed in a greenhouse. […] At the end of this period, the herbicidal effectiveness of the compound was rated based on the physiological observations. A 0-to-100 scale was used, 0 representing no phytotoxicity, 100 representing complete kill.

[5] = tested on: Lambsquarter (Chenopodium album); experiment: Pre-Emergent herbicidal test; format: in vivo; conditions: 33 micrograms/cm^2, 3 weeks, 0-to-100 scale, 100 = complete kill
Experimental: as §1, §2, §3

[6] = tested on: Mustard (Brassica arvensis); experiment: Pre-Emergent herbicidal test; format: in vivo; conditions: 33 micrograms/cm^2, 3 weeks, 0-to-100 scale, 100 = complete kill
Experimental: as §1, §2, §3

[7] = tested on: Crabgrass (Digitaria sanguinalis); experiment: Pre-Emergent herbicidal test; format: in vivo; conditions: 33 micrograms/cm^2, 3 weeks, 0-to-100 scale, 100 = complete kill
Experimental: as §1, §2, §3

[8] = tested on: Wild Oats (Avena fatua); experiment: Pre-Emergent herbicidal test; format: in vivo; conditions: 33 micrograms/cm^2, 3 weeks, 0-to-100 scale, 100 = complete kill
Experimental: as §1, §2, §3

[9] = tested on: Lambsquarter (Chenopodium album); experiment: Post-emergent herbicidal test; format: in vivo; conditions: 0-to-100 scale
[10] = tested on: Crabgrass (Digitaria sanguinalis); experiment: Post-emergent herbicidal test; format: in vivo; conditions: 0-to-100 scale
[11] = tested on: Wild Oats (Avena fatua); experiment: Post-emergent herbicidal test; format: in vivo; conditions: 0-to-100 scale
[12] = tested on: Erysiphe polygoni; experiment: Powdery Mildew (bean seedlings); format: in vivo; conditions: 240 h, 250 ppm spray on bean seedlings, about 10 days, relative to untreated check plants
Excerpt: The powdery mildew test was made using bean seedlings (var. Bountiful) with well-developed primary leaves. The pathogen was Erysiphe polygoni. The bean seedlings were sprayed with a 250 ppm solution of the test compound in an acetone-water mixture containing a nonionic emulsifier. The treated plants were inoculated one day after spray application of the test compound with the pathogen. […] The rate of infection on the leaves was made after about 10 days. The percent disease control provided by a given test compound was based on the disease reduction relative to untreated check plants.

[13] = tested on: Botrytis cinerea; experiment: Botrytis cinerea control (detached horsebean leaves); format: in vivo; conditions: 3 to 5 days
Experimental: Compounds of the invention were tested for Botrytis cinerea control using detached, well-developed primary leaves of a 4-6 week old horsebean plant. […] The leaves were allowed to dry while the filter paper was kept moist by adding water as required. The treated leaves were then inoculated with the spores of Botrytis cinerea fungus grown on potato. The plate was covered after inoculation and kept at 23.5° C. The filter-paper lining of the plate was kept saturated with water throughout the test. The rate of disease incidence was determined in 3 to 5 days, when the disease symptoms were fully evident on non-treated check leaves. […]

[14] = tested on: Rhizoctonia solani; experiment: Mycelia Inhibition; format: cell-based; conditions: mycelial inhibition, 25° C., 24 hours
[15] = tested on: Alternaria solani; experiment: Tomato Early Blight; format: in vivo; conditions: 288 h, 250 ppm spray, inoculated one day later, based on untreated check plants, read-out: Tomato Early blight % Control
[16] = tested on: Phytophthora infestans; experiment: whole plant or invertebrate; format: in vivo; conditions: in Solanum lycopersicum, 168 h, read-out: Tomato Late Blight % Control
[17] = tested on: Aspergillus niger; experiment: Mycelia Inhibition; format: cell-based; conditions: mycelial inhibition, 25° C., 24 hours
[18] = tested on: Pythium ultimum; experiment: Mycelia Inhibition; format: cell-based; conditions: mycelial inhibition, 25° C., 24 hours
[19] = tested on: Fusarium moniliforme; experiment: Mycelia Inhibition; format: cell-based; conditions: mycelial inhibition, 25° C., 24 hours

SMILES	Celery Late Blight % Control [1]	Herbicidal Effectiveness - Post, M [2]	Herbicidal Effectiveness - Post, W [3]	Herbicidal Effectiveness - Pre, W [4]	Herbicidal Effectiveness - Pre, L [5]	Herbicidal Effectiveness - Pre, M [6]	Herbicidal Effectiveness - Pre, C [7]	Herbicidal Effectiveness - Pre, O [8]	Herbicidal Effectiveness - Post, L [9]	Herbicidal Effectiveness - Post, C [10]	Herbicidal Effectiveness - Post, O [11]	pest or weed control at 250 ppm [12]	Botrytis Cinerea, micrograms/cm^2 for 99% control of the fungus [13]	Rhizoctonia solani, micrograms/cm^2 for 99% control of the fungus [14]	pest or weed control at 250 ppm [15]	pest or weed control at 250 ppm [16]	Aspergillus niger, micrograms/cm^2 for 99% control of the fungus [17]	Pythium ultimum, micrograms/cm^2 for 99% control of the fungus [18]	Fusarium moniliforme, micrograms/cm^2 for 99% control of the fungus [19]
Cc1cc(Cl)ccc1OCC1=NC2=S(O1)SN=C2Cl (centres unmarked) [Compound 19]	92%	100	40	75	100	100	85	35	95	0	10	57%	–	–	–	–	–	–	–
ClC1=NSS2=C1N=C(CI)O2 (centres unmarked) [Compound 9, 2-iodomethyl-3-oxa-3aλ^4,4-dithia-6-chloro-1,5-diazapentalene]	71%	–	–	–	–	–	–	–	–	–	–	–	0.37 micrograms/cm^2	0.6 micrograms/cm^2	81%	62%	0.52 micrograms/cm^2	0.12 micrograms/cm^2	0.82 micrograms/cm^2
